Assay results as given in ChEMBL document CHEMBL3875216, “Synthesis of antimicrobial glucosamides as bacterial quorum sensing mechanism inhibitors” (Bioorg Med Chem, 2017).

Columns and labels:
[1] = system: Escherichia coli; assay: Growth inhibition of Escherichia coli MT102 at 500 uM after 24 hrs relative to control; details: MT102, 24 h, read-out: GI
[2] = system: Escherichia coli; assay: Growth inhibition of Escherichia coli MT102 at 500 uM after 8 hrs relative to control; details: MT102, 8 h, read-out: GI
[3] = system: Escherichia coli; assay: Inhibition of LuxR-dependent quorum sensing activity in Escherichia coli MT102 harboring pJBA132 assessed as inhibition of OHHL-induced GFP expression at 500 uM measured after 8 hrs by fluorescence assay relative to control
[4] = system: Pseudomonas aeruginosa PA14; assay: Inhibition of quorum sensing-regulated biofilm formation in Pseudomonas aeruginosa PA14 at 2 mM after overnight incubation by crystal violet staining based assay relative to control
[5] = system: Pseudomonas aeruginosa; assay: Inhibition of LasR-dependent quorum sensing activity in Pseudomonas aeruginosa MH602 harboring GFP-fused […] LasB promoter assessed as inhibition of 3-oxo-dodecanoyl HSL-induced GFP expression at 500 uM measured after 8 hrs by fluorescence assay relative to control
[6] = system: Escherichia coli; assay: Growth inhibition of Escherichia coli MT102 at 1 mM after 8 hrs relative to control; details: MT102, 8 h, read-out: GI
[7] = system: Pseudomonas aeruginosa; assay: Growth inhibition of Pseudomonas aeruginosa MH602 at 1 mM after 24 hrs relative to control; details: MH602, 24 h, read-out: GI
[8] = system: Pseudomonas aeruginosa; assay: Inhibition of LasR-dependent quorum sensing activity in Pseudomonas aeruginosa MH602 harboring GFP-fused […] LasB promoter assessed as inhibition of 3-oxo-dodecanoyl HSL-induced GFP expression at 1 mM measured after 8 hrs by fluorescence assay relative to control
[9] = system: Escherichia coli; assay: Growth inhibition of Escherichia coli MT102 at 2 mM after 24 hrs relative to control; details: MT102, 24 h, read-out: GI
[10] = system: Escherichia coli; assay: Growth inhibition of Escherichia coli MT102 at 1 mM after 24 hrs relative to control; details: MT102, 24 h, read-out: GI
[11] = system: Pseudomonas aeruginosa; assay: Growth inhibition of Pseudomonas aeruginosa PA14 at 2 mM after 24 hrs relative to control; details: 2000 µM
[12] = system: Pseudomonas aeruginosa; assay: Growth inhibition of Pseudomonas aeruginosa MH602 at 500 uM after 24 hrs relative to control; details: MH602, 24 h, read-out: GI
[13] = system: Escherichia coli; assay: Inhibition of LuxR-dependent quorum sensing activity in Escherichia coli MT102 harboring pJBA132 assessed as inhibition of OHHL-induced GFP expression at 1 mM measured after 24 hrs by fluorescence assay relative to control
[14] = system: Pseudomonas aeruginosa PA14; assay: Inhibition of quorum sensing-regulated pyocyanin production in Pseudomonas aeruginosa PA14 at 2 mM after 24 hrs relative to control
[15] = system: Pseudomonas aeruginosa; assay: Growth inhibition of Pseudomonas aeruginosa MH602 at 500 uM after 8 hrs relative to control; details: MH602, 8 h, read-out: GI
[16] = system: Pseudomonas aeruginosa; assay: Inhibition of LasR-dependent quorum sensing activity in Pseudomonas aeruginosa MH602 harboring GFP-fused […] LasB promoter assessed as inhibition of 3-oxo-dodecanoyl HSL-induced GFP expression at 1 mM measured after 24 hrs by fluorescence assay relative to control
[17] = system: Escherichia coli; assay: Inhibition of LuxR-dependent quorum sensing activity in Escherichia coli MT102 harboring pJBA132 assessed as inhibition of OHHL-induced GFP expression at 2 mM measured after 24 hrs by fluorescence assay relative to control
[18] = system: Pseudomonas aeruginosa; assay: Growth inhibition of Pseudomonas aeruginosa MH602 at 2 mM after 8 hrs relative to control; details: MH602, 8 h, read-out: GI
[19] = system: Pseudomonas aeruginosa; assay: Growth inhibition of Pseudomonas aeruginosa MH602 at 2 mM after 24 hrs relative to control; details: MH602, 24 h, read-out: GI
[20] = system: Pseudomonas aeruginosa; assay: Growth inhibition of Pseudomonas aeruginosa MH602 at 1 mM after 8 hrs relative to control; details: MH602, 8 h, read-out: GI
[21] = system: Pseudomonas aeruginosa; assay: Inhibition of LasR-dependent quorum sensing activity in Pseudomonas aeruginosa MH602 harboring GFP-fused […] LasB promoter assessed as inhibition of 3-oxo-dodecanoyl HSL-induced GFP expression at 2 mM measured after 24 hrs by fluorescence assay relative to control
[22] = system: Escherichia coli; assay: Growth inhibition of Escherichia coli MT102 at 2 mM after 8 hrs relative to control; details: MT102, 8 h, read-out: GI
[23] = system: Pseudomonas aeruginosa; assay: Inhibition of LasR-dependent quorum sensing activity in Pseudomonas aeruginosa MH602 harboring GFP-fused […] LasB promoter assessed as inhibition of 3-oxo-dodecanoyl HSL-induced GFP expression at 2 mM measured after 8 hrs by fluorescence assay relative to control
[24] = system: Pseudomonas aeruginosa; assay: Inhibition of LasR-dependent quorum sensing activity in Pseudomonas aeruginosa MH602 harboring GFP-fused […] LasB promoter assessed as inhibition of 3-oxo-dodecanoyl HSL-induced GFP expression at 500 uM measured after 24 hrs by fluorescence assay relative to control
[25] = system: Escherichia coli; assay: Inhibition of LuxR-dependent quorum sensing activity in Escherichia coli MT102 harboring pJBA132 assessed as inhibition of OHHL-induced GFP expression at 1 mM measured after 8 hrs by fluorescence assay relative to control
[26] = system: Escherichia coli; assay: Inhibition of LuxR-dependent quorum sensing activity in Escherichia coli MT102 harboring pJBA132 assessed as inhibition of OHHL-induced GFP expression at 500 uM measured after 24 hrs by fluorescence assay relative to control
[27] = system: Escherichia coli; assay: Inhibition of LuxR-dependent quorum sensing activity in Escherichia coli MT102 harboring pJBA132 assessed as inhibition of OHHL-induced GFP expression at 2 mM measured after 8 hrs by fluorescence assay relative to control

SMILES	inhibition at 500 µM [1] [%]	inhibition at 500 µM [2] [%]	inhibition [3] [%]	inhibition [4] [%]	inhibition [5] [%]	inhibition at 1000 µM [6] [%]	inhibition at 1000 µM [7] [%]	inhibition [8] [%]	inhibition at 2000 µM [9] [%]	inhibition at 1000 µM [10] [%]	growth inhibition (GI) [11]	inhibition at 500 µM [12] [%]	inhibition [13] [%]	inhibition at 500 µM [15] [%]	inhibition [17] [%]	inhibition at 2000 µM [18] [%]	inhibition at 2000 µM [19] [%]	inhibition at 1000 µM [20] [%]	inhibition [21] [%]	inhibition at 2000 µM [22] [%]	also measured
COc1ccc(CC(=O)N[C@H]2[C@H](OC(C)=O)O[C@H](COC(C)=O)[C@@H](OC(C)=O)[C@@H]2OC(C)=O)cc1	4.5	0	6.6	5.6	4.2	0	0	9.6	0	0	Non-Toxic	3.9	28.7	0	25.4	0	0	0	18.6	0	inhibition [14]: 0.4%; inhibition [16]: 19.4%; inhibition [23]: 0.9%; inhibition [24]: 17.8%
CCCC(=O)N[C@@H]1[C@@H](O)[C@H](O)[C@@H](CO)O[C@H]1O	13.5	37.9	51.7	22.4	13.5	34.5	0	22.5	10.7	13.9	Non-Toxic	5.9	93.5	8.9	97.5	29.8	4.4	0	13.4	83.6	inhibition [25]: 92.7%; inhibition [26]: 46.5%; inhibition [27]: 98.4%; inhibition [14]: 10.6%; inhibition [23]: 79.1%; inhibition [24]: 10.7%
CCCC(=O)N[C@H]1[C@H](OC(C)=O)O[C@H](COC(C)=O)[C@@H](OC(C)=O)[C@@H]1OC(C)=O	3	9.4	10.1	7.8	3.6	0	0	11	0	5	Non-Toxic	0	4.4	3.4	23.4	0	0	0.9	22.2	0	inhibition [25]: 21.9%; inhibition [26]: 2.1%; inhibition [27]: 6.1%; inhibition [14]: 1.5%; inhibition [23]: 10.8%; inhibition [24]: 2.5%
O=C(CCCc1ccccc1)N[C@@H]1[C@@H](O)[C@H](O)[C@@H](CO)O[C@H]1O	7.7	17.9	8.7	4.8	5.6	0	2	9.9	2.7	8.8	Non-Toxic	0	46.7	2.6	85	15.8	0	2.1	17.4	21.2	inhibition [25]: 43.4%; inhibition [26]: 4.3%; inhibition [27]: 76.2%; inhibition [23]: 38.9%
COc1ccc(CC(=O)N[C@@H]2[C@@H](O)[C@H](O)[C@@H](CO)O[C@H]2O)cc1	0	0	6.7	16.6	3.2	0	3.3	7.5	3	0	Non-Toxic	2.9	20.2	0	2.6	0	0	0	3	0	inhibition [25]: 10.1%; inhibition [26]: 16%; inhibition [27]: 3.5%; inhibition [23]: 0.8%
CC(=O)OC[C@H]1O[C@@H](OC(C)=O)[C@H](NC(=O)Cc2ccc(Cl)cc2)[C@@H](OC(C)=O)[C@@H]1OC(C)=O	0	0	5.2	17.8	1.4	0	0		0	0	Non-Toxic	3.4	8.5	0	16.5	0	0	0	16.7	0	inhibition [25]: 4.2%; inhibition [26]: 1.3%; inhibition [27]: 3.7%; inhibition [14]: 9.3%; inhibition [16]: 14.8%; inhibition [24]: 13.3%
O=C(Cc1ccc(C(F)(F)F)cc1)N[C@@H]1[C@@H](O)[C@H](O)[C@@H](CO)O[C@H]1O	1.2	0	11.4	17.8	2.4	0	7.8	7.1	2.5	0	Non-Toxic	4.4		0		0	5.8	0	10.6	0	inhibition [25]: 10.1%; inhibition [27]: 12.8%; inhibition [14]: 6.6%; inhibition [16]: 10.3%; inhibition [23]: 3.3%; inhibition [24]: 10.6%
CC(=O)N[C@@H]1[C@@H](O)[C@H](O)[C@@H](CO)O[C@H]1O [N-ACETYLGLUCOSAMINE]	14.7	6.1	36.2		16.3	7.8	0	29.6	10.3	0	Non-Toxic	2.7	69.3	0	96.1	12.5	0	0		0	inhibition [25]: 85%; inhibition [26]: 18.8%; inhibition [27]: 86.5%; inhibition [23]: 81.3%; inhibition [24]: 13.6%
